Results taken from patent publication US11345711B2, “8,9-dihydroimidazo[1,2-a]pyrimido[5,4-e]pyrimidin-5(6H)-ones” (IMPACT THERAPEUTICS (SHANGHAI), INC, priority 2016, dated 2022).
Read-outs that look alike come from different tables or passages of the source.

Tests used:
Wee1 (h) = Wee1 (h) (Homo sapiens, UniProt P30291); assay: Wee1 kinase (h) detection method, [γ-33P]-ATP filter assay; assay type: biochemical
LoVo cells = assay: MTT based cell viability assay on LoVo cells; conditions: Homo sapiens, LoVo, 72 h, 3 d, read-out: IC50, growth inhibition of LoVo cells
Method in brief: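 Inhibition of LoVo proliferation was derived as IC50 from a sigmoidal dose-response fit of cell survival. Readout was MTT (0.5 mg/mL, 4 h) with absorbance at 552/630/690 nm, after 3-day treatment at 37 °C. Eight-point series from 10 μM to 0.01 μM, DMSO control, 1% DMSO final.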

NCI-H1299 cells = assay: MTT based cell viability assay on NCI-H1299 cells; conditions: Homo sapiens, read-out: IC50, growth inhibition of NCI-H1299 cells
Method in brief: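 NCI-H1299 cells (1000/well, settled overnight) were exposed for 3 d at 37 °C, 5% CO2, to an eight-point series of 10 μM to 0.01 μM plus DMSO blank, as prepared in DMSO (final DMSO 1‰). MTT (0.5 mg/mL, 4 h) was read at 552/630/690 nm. IC50 came from sigmoidal dose-response fits of survival.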

Wee1 (h), sequence (P30291 whole entry): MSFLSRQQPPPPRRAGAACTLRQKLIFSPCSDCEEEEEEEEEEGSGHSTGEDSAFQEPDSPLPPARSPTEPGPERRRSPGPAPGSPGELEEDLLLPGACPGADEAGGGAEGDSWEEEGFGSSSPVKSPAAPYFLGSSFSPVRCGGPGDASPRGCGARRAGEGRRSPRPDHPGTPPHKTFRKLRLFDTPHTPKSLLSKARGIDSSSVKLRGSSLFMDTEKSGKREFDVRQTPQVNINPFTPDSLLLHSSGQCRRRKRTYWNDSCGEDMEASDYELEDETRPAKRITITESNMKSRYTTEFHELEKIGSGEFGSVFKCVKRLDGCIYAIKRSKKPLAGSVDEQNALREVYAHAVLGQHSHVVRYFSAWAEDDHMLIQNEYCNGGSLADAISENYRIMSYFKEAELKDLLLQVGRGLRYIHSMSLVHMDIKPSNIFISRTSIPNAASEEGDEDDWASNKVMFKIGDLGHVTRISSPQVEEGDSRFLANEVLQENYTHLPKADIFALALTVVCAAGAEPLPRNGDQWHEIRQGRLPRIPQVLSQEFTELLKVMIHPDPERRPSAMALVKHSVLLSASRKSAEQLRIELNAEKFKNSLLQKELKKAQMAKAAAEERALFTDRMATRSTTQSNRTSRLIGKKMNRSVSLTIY

| Compound | Inh. (%) of Wee1 kinase enzyme activity (Wee1 (h); C 1 μm compound) [%] | IC50 (LoVo cells) [µM] | IC50 (NCI-H1299 cells; NCI-H1299 cells) [µM] | Inh. (%) of Wee1 kinase enzyme activity (Wee1 (h); C 0.01 μm compound) [%] | Inh. (%) of Wee1 kinase enzyme activity (Wee1 (h); C 0.1 μm compound) [%] | IC50 (NCI-H1299 cells; NCI-H1299, NCI-H1299 cells) [µM] |
| --- | --- | --- | --- | --- | --- | --- |
| CN1CCN(c2ccc(Nc3ncc4c(n3)N3CCN=C3N(C(C)(C)C)C4=O)cc2)CC1 [Example 19, 6-(Tert-butyl)-2-((4-(4-methylpiperazin-1-yl)phenyl)amino)-8,9-dihydroimidazo[1,2-a]pyrimido[5,4-e]pyrimidin-5(6H)-one] | 7 | > 100 | > 10 | – | – | – |
| CN(C)C1CCN(c2ccc(Nc3ncc4c(n3)N3CCN=C3N(c3c(F)cccc3Cl)C4=O)cc2F)CC1 [Example 116, 6-(2-Chloro-6-fluorophenyl)-2-((4-(4-(dimethylamino)piperidin-1-yl)-3-fluorophenyl)amino)-8,9-dihydroimidazo[1,2-a]pyrimido[5,4-e]pyrimidin-5(6H)-one] | 98 | 0.123 | – | 19 | 77 | 0.265 |
| C[C@@H]1CN(c2ccc(Nc3ncc4c(n3)N3CCN=C3N(c3c(Cl)cccc3Cl)C4=O)c(Cl)c2)C[C@H](C)N1C [Example 67, 6-(2,6-Dichlorophenyl)-2-((2-chloro-4-((3S,5R)-3,4,5-trimethylpiperazin-1-yl)phenyl)amino)-8,9-dihydroimidazo[1,2-a]pyrimido[5,4-e]pyrimidin-5(6H)-one] | 24 | > 100 | > 10 | – | – | – |
| CN1CCN(c2ccc(Nc3ncc4c(n3)N3C(=NCC3(C)C)N(c3c(F)cccc3Cl)C4=O)cc2)CC1 [Example 28, 6-(2-Chloro-6-fluorophenyl)-9,9-dimethyl-2-((4-(4-methylpiperazin-1-yl)phenyl)amino)-8,9-dihydroimidazo[1,2-a]pyrimido[5,4-e]pyrimidin-5(6H)-one] | 67 | > 1 | > 3 | – | – | – |
| CC(C)N1[C@H](C)CN(c2ccc(Nc3ncc4c(n3)N3CCN=C3N(c3c(Cl)cccc3Cl)C4=O)cc2)C[C@@H]1C [Example 65, 6-(2,6-Dichlorophenyl)-2-((4-((3S,5R)-4-isopropyl-3,5-dimethylpiperazin-1-yl)phenyl)amino)-8,9-dihydroimidazo[1,2-a]pyrimido[5,4-e]pyrimidin-5(6H)-one] | 98 | 0.103 | 0.405 | 18 | 68 | – |
| CN1CCN(c2ccc(Nc3ncc4c(n3)N3CCN=C3N(c3ccccc3)C4=O)cc2)CC1 [Example 96, 6-Phenyl-2-((4-(4-methylpiperazin-1-yl)phenyl)amino)-8,9-dihydroimidazo[1,2-a]pyrimido[5,4-e]pyrimidin-5(6H)-one] | 29 | > 100 | > 10 | – | – | – |
| O=C1c2cnc(Nc3ccc(N4CCN(CCO)CC4)cc3)nc2N2CCN=C2N1c1c(Cl)cccc1Cl [Example 182, 6-(2,6-Dichlorophenyl)-2-((4-(4-(2-hydroxyethyl)piperazin-1-yl)phenyl)amino)-8,9-dihydroimidazo[1,2-a]pyrimido[5,4-e]pyrimidin-5(6H)-one] | 94 | 0.243 | 0.503 | – | – | – |
| CN(C)C1CCN(c2ccc(Nc3ncc4c(n3)N3CCN=C3N(c3c(Cl)cccc3Cl)C4=O)cc2)CC1 [Example 138, 6-(2,6-Dichlorophenyl)-2-((4-(4-(dimethylamino)piperidin-1-yl)phenyl)amino)-8,9-dihydroimidazo[1,2-a]pyrimido[5,4-e]pyrimidin-5(6H)-one] | 96 | 0.199 | – | 22 | 77 | 0.17 |
| O=C1c2cnc(Nc3ccc(N4CCNCC4)cc3)nc2N2CCN=C2N1c1c(Cl)cccc1Cl [Example 175, 6-(2,6-Dichlorophenyl)-2-((4-(piperazin-1-yl)phenyl)amino)-8,9-dihydroimidazo[1,2-a]pyrimido[5,4-e]pyrimidin-5(6H)-one] | 95 | 0.192 | 0.269 | – | – | – |
| C[C@@H]1CN(c2ccc(Nc3ncc4c(n3)N3CCN=C3N(c3c(Cl)cccc3Cl)C4=O)cc2)C[C@H](C)N1C [Example 64, 6-(2,6-Dichlorophenyl)-2-((4-((3S,5R)-3,4,5-trimethylpiperazin-1-yl)phenyl)amino)-8,9-dihydroimidazo[1,2-a]pyrimido[5,4-e]pyrimidin-5(6H)-one] | 100 | 0.0965 | 0.177 | 52 | 88 | – |
| CN1CCN(c2ccc(Nc3ncc4c(n3)N3CCN=C3N(c3cc(Cl)ccc3Cl)C4=O)cc2)CC1 [Example 90, 6-(2,5-Dichlorophenyl)-2-((4-(4-methylpiperazin-1-yl)phenyl)amino)-8,9-dihydroimidazo[1,2-a]pyrimido[5,4-e]pyrimidin-5(6H)-one] | 29 | 1.31 | > 10 | – | – | – |

The next lines start with the values.

| Inh. (%) of Wee1 kinase enzyme activity (Wee1 (h); C 1 μm compound) [%] | IC50 (LoVo cells) [µM] | IC50 (NCI-H1299 cells; NCI-H1299 cells) [µM] | Inh. (%) of Wee1 kinase enzyme activity (Wee1 (h); C 0.01 μm compound) [%] | Inh. (%) of Wee1 kinase enzyme activity (Wee1 (h); C 0.1 μm compound) [%] | IC50 (NCI-H1299 cells; NCI-H1299, NCI-H1299 cells) [µM] | Compound |
| --- | --- | --- | --- | --- | --- | --- |
| 94 | 0.0594 | – | 22 | 72 | 0.113 | COc1cc(Nc2ncc3c(n2)N2CCN=C2N(c2c(Cl)cccc2Cl)C3=O)cc(F)c1N1CCN(C)CC1 [Example 149, 6-(2,6-Dichlorophenyl)-2-((3-fluoro-5-methoxy-4-(4-methylpiperazin-1-yl)phenyl)amino)-8,9-dihydroimidazo[1,2-a]pyrimido[5,4-e]pyrimidin-5(6H)-one] |
| 89 | 0.135 | – | 7 | 72 | 0.31 | Cc1cc(Nc2ncc3c(n2)N2CCN=C2N(c2c(C)cccc2Cl)C3=O)ccc1N1CCN(C)CC1 [Example 81, 6-(2-Chloro-6-methylphenyl)-2-((3-methyl-4-(4-methylpiperazin-1-yl)phenyl)amino)-8,9-dihydroimidazo[1,2-a]pyrimido[5,4-e]pyrimidin-5(6H)-one] |
| 95 | 0.0954 | – | 22 | 70 | 0.214 | Cc1cc(Nc2ncc3c(n2)N2CCN=C2N(c2c(F)cccc2F)C3=O)cc(C)c1N1CCN(C)CC1 [Example 101, 6-(2,6-Difluorophenyl)-2-((3,5-dimethyl-4-(4-methylpiperazin-1-yl)phenyl)amino)-8,9-dihydroimidazo[1,2-a]pyrimido[5,4-e]pyrimidin-5(6H)-one] |
| 92 | 0.0241 | – | – | – | 0.0973 | Cc1cc(Nc2ncc3c(n2)N2CCN=C2N(c2c(Cl)cccc2Br)C3=O)cc(F)c1N1CCN(C)CC1 [Example 165, 6-(2-Bromo-6-chlorophenyl)-2-((3-fluoro-5-methyl-4-(4-methylpiperazin-1-yl)phenyl)amino)-8,9-dihydroimidazo[1,2-a]pyrimido[5,4-e]pyrimidin-5(6H)-one] |
| 97 | 0.101 | – | 17 | 68 | 0.159 | CN1CCN(c2c(Cl)cc(Nc3ncc4c(n3)N3CCN=C3N(c3c(Cl)cccc3Br)C4=O)cc2Cl)CC1 [Example 164, 6-(2-Bromo-6-chlorophenyl)-2-((3,5-dichloro-4-(4-methylpiperazin-1-yl)phenyl)amino)-8,9-dihydroimidazo[1,2-a]pyrimido[5,4-e]pyrimidin-5(6H)-one] |
| 12 | > 100 | > 10 | – | – | – | CN1CCN(c2ccc(Nc3ncc4c(n3)N3CCN=C3N(c3c(F)cccc3Cl)C4=O)cc2[N+](=O)[O-])CC1 [Example 55, 6-(2-Chloro-6-fluorophenyl)-2-((4-(4-methylpiperazin-1-yl)-3-nitrophenyl)amino)-8,9-dihydroimidazo[1,2-a]pyrimido[5,4-e]pyrimidin-5(6H)-one] |
| 98 | 0.0273 | – | 31 | 85 | 0.0628 | Cc1cc(Nc2ncc3c(n2)N2CCN=C2N(c2c(Cl)cccc2Br)C3=O)cc(F)c1N1CCC(N(C)C)CC1 [Example 160, 6-(2-Bromo-6-chlorophenyl)-2-((4-(4-(dimethylamino)piperidin-1-yl)-3-fluoro-5-methylphenyl)amino)-8,9-dihydroimidazo[1,2-a]pyrimido[5,4-e]pyrimidin-5(6H)-one] |
| 92 | 0.0497 | – | 18 | 62 | 0.138 | COc1cc(Nc2ncc3c(n2)N2CCN=C2N(c2c(F)cccc2Cl)C3=O)cc(F)c1N1CCN(C)CC1 [Example 124, 6-(2-Chloro-6-fluorophenyl)-2-((3-fluoro-5-methoxy-4-(4-methylpiperazin-1-yl)phenyl)amino)-8,9-dihydroimidazo[1,2-a]pyrimido[5,4-e]pyrimidin-5(6H)-one] |
| 99 | 0.0625 | 0.0978 | 25 | 87 | – | Cc1cc(Nc2ncc3c(n2)N2CCN=C2N(c2c(Cl)cccc2Br)C3=O)ccc1N1CCN(C)CC1 [Example 163, 6-(2-Bromo-6-chlorophenyl)-2-((3-methyl-4-(4-methylpiperazin-1-yl)phenyl)amino)-8,9-dihydroimidazo[1,2-a]pyrimido[5,4-e]pyrimidin-5(6H)-one] |
